Assay results from patent publication US20080112967A1, “Process for Refining Ganoderma Spore Polysacchoride” (NANJING ZHONGKE GROUP CORP., LTD., priority 2006, published 2008).

Tests used:
[1] = system: mouse transplantation tumor Heps; test: inhibitory action of No. 1, oral pour stomach administration, on mouse transplantation tumor Heps; conditions: masculine reference, dosage 30 mg/kg, once a day, 7 times
Protocol: (§1) 1.1 The test medicine: the reference Ganoderma spore polysaccharide (it is named No. 1), it is produced by the method disclosed in the CN1483743, the specific steps is: add Ganoderma spore powder into distilled water, the added amount can shape the Ganoderma spore, shake it up, pelletize, dry in the air, use CO2 supercritical extraction method to remove fat, weigh 10 kg Ganoderma spore which is removed fat, add it into the abstraction pot, add 150 Kg water, soak it for 2 h, heat to boil, keep reflux for 4 h, centrifuge the extracting solution, condense the filtrate to 5 Kg, add three times 95% ethanol, lay it 24 h, filter the polysaccharide precipitation, dry the precipitation so as to obtain the Ganoderma spore polysaccharide.
(§2) 1.2 Animal:ICR mouse, 18-22 g, half male and half female, the mouses is provided by China drug section university animal laboratory. The number of certificate of conformity is: SCXK (SU)2002-0011. The feedstuff is diet pellet, it is provided by China drug section university animal laboratory. Breeding condition: air conditioning room, Temperature 18-24° C., Relative humidity: 70%.
(§3) 1.3 Masculine Drug: endoxan (CTX), HENGRUI MEDICINE CO LTD JIANG. Specification: 200 mg/bottle, Batch Number: 06060121.
3.1.1 administration route: oral pour stomach (ip)
3.1.2 administration period: Inoculate Heps entity type by transplantation tumor methodology, after inoculating 24 h, administrate to the mouse and ip administrate, once a day, administrate for 7 times, at the next day when the administration is stopped, kill the mouse.
(§4) 3.1.3 dosage, there are four groups:
(§5) blank reference group(normal saline)
(§6) 3.1.4 experimental method: Take 40 above-mentioned mouses (Heps entity type inoculated by transplantation tumor methodology), after the mouse is inoculated, weigh the mouse, and divide them into 4 groups, there is 10 mouses in every groups, half male and half female, blank reference group and CTX group are negative and masculine reference group. After inoculating 24 h, administrate to the mouse and ip administrate, once a day, administrate for 7 times, at the next day when the administration is stopped, weigh the mouses and kill them, weigh the weight of tumor, statisticaly treat the obtained data (t verify).

[2] = system: mouse transplantation tumor S180; test: inhibitory action of No. 1, oral pour stomach administration, on mouse transplantation tumor S180; conditions: masculine reference, dosage 30 mg/kg, once a day, 7 times
Protocol: as §1, §2, §3
3.2.1 administration route: oral pour stomach […]
3.2.2 administration period: Inoculate S180 entity type by transplantation tumor methodology, after inoculating 24 h, administrate to the mouse and ip administrate, once a day, administrate for 7 times, at the next day when the administration is stopped, kill the mouse.
(§7) 3.2.3 dosage, there are four groups:
as §5
as §6, with “3.2.4” for “3.1.4”, “(S180” for “(Heps”, “t verify.” for “(t verify).”

[3] = system: mouse transplantation tumor Heps; test: inhibitory action of No. 2, intravenous injection administration, on mouse transplantation tumor Heps; conditions: masculine reference, dosage 30 mg/kg, once on alternate days, 4 times
From the text: (§8) 1.1 The test medicine: the Ganoderma spore polysaccharide of the present invention (produced by the method of the present invention, it is named No.2.).
as §2, with “Animal: ICR” for “Animal:ICR”, “ertificate” for “certificate”, “SCXK(SU)2002-0011.” for “SCXK (SU)2002-0011.”
(§9) 1.3 Masculine drug: endoxan (CTX), HENGRUI MEDICINE CO LTD JIANG.
3.1 the inhibitory action of the No. 2 intravenous injection (iv) administration to the mouse transplantation tumor Heps.
3.1.1 administration route: intravenous injection (iv)
3.1.2 administration period: Inoculate Heps entity type by transplantation tumor methodology, after inoculating 24 h, administrate to the mouse and ip administrate, once on alternate days, administrate for 4 times, at the next day when the administration is stopped, kill the mouse.
as §4
(§10) blank reference group (normal saline)
as §6, with “CTX: 20 mg/kg 3.1.4” for “3.1.4”, “on alternate days,” for “a day,”, “4” for “7”, “statistically” for “statisticaly”

[4] = system: mouse transplantation tumor S180; test: inhibitory action of No. 2, intravenous injection administration, on mouse transplantation tumor S180; conditions: masculine reference, dosage 30 mg/kg, once on alternate days, 4 times
From the text: as §8
as §2, with “Animal: ICR” for “Animal:ICR”, “ertificate” for “certificate”, “SCXK(SU)2002-0011.” for “SCXK (SU)2002-0011.”
as §9
3.2.1 administration route: intravenous injection (iv)
3.2.2 administration period: Inoculate S180 entity type by transplantation tumor methodology, after inoculating 24 h, administrate to the mouse and ip administrate, once on alternate days, administrate for 4 times, at the next day when the administration is stopped, kill the mouse.
as §7, §10
as §6, with “3.2.4” for “3.1.4”, “(S180” for “(Heps”, “on alternate days,” for “a day,”, “4” for “7”, “t verify.” for “(t verify).”

In the case of `O=P1(N(CCCl)CCCl)NCCCO1` (stereo not shown) [CTX, endoxan], the “The rate of inhibiting tumor (%)” value [1] was 64.60%, the “Weight(g) After anministration” value ([1]; X ± SD, n = 10) was 24.3 ± 2.41 g and the “Weight(g) Before anministration” value ([1]; X ± SD, n = 10) was 20.1 ± 1.30 g. The “the weight of tumor” value ([1]; X ± SD, n = 10) was 0.43 ± 0.15 g, the “The rate of inhibiting tumor (%)” value [2] was 65.81% and the “Weight(g) After anministration” value ([2]; X ± SD, n = 10) was 24.3 ± 1.68 g. For the same compound, the “Weight(g) Before anministration” value ([2]; X ± SD, n = 10) was 20.1 ± 0.94 g, the “the weight of tumor” value ([2]; X ± SD, n = 10) was 0.51 ± 0.18 g and the “The rate of inhibiting tumor (%)” value [3] was 64.60%. The “Weight(g) After anministration” value ([3]; X ± SD, n = 10) was 24.3 ± 2.41 g, the “Weight(g) Before anministration” value ([3]; X ± SD, n = 10) was 20.1 ± 1.30 g and the “the weight of tumor” value ([3]; X ± SD, n = 10) was 0.43 ± 0.15 g. For the same compound, the “The rate of inhibiting tumor (%)” value [4] was 65.81%, the “Weight(g) After anministration” value ([4]; X ± SD, n = 10) was 24.3 ± 1.68 g and the “Weight(g) Before anministration” value ([4]; X ± SD, n = 10) was 20.1 ± 0.94 g. The “the weight of tumor” value ([4]; X ± SD, n = 10) was 0.51 ± 0.18 g.
